Literature values in paper PMC12671102 (Drug Design, Development and Therapy, 2025).

What was measured:
subjects [1] = tested on: subjects
subjects [2] = details: Phase II study
[3] = moderate fat meal

nephrolithiasis (subjects [2])	subjects with increases in serum creatinine (subjects [2]) [%]	effect of food on absorption [3]	SMILES	subjects with TEAEs (subjects [1]) [%]
–	–	–	O=C(c1cc(Br)c(O)c(Br)c1)N1CCOc2ccncc21 [URC102]	41
no nephrolithiasis	17.1	delayed absorption	CC(C)(Sc1ccncc1-c1ccc(C#N)c2ccccc12)C(=O)O [verinurad]	–
